EC50 and half-life data for 28 compounds are collected here from ChEMBL document CHEMBL5046240, “Design, synthesis, and evaluation of potent RIPK1 inhibitors with in vivo anti-inflammatory activity” (Eur J Med Chem, 2022).

The structures appear in SMILES notation. Some results are limits rather than exact numbers.

The subject of data set [1] is HT-29. As to the kind of experiment: Anti-necroptic activity in human HT-29 cells assessed as TNFalpha/Z-VAD (TSZ) induced necroptosis by measuring cell viability preincubated for 1 hr followed by TSZ addition ans measured after 24 hrs by celltiter-glo luminescent cell viability assay. The class given is functional, cell-based.
Data set [2] relates to L929. As to the kind of experiment: Anti-necroptic activity in mouse L929 cells assessed as TNFalpha/Z-VAD (TSZ) induced necroptosis by measuring cell viability preincubated for 1 hr followed by TSZ addition and measured after 24 hrs by celltiter-glo luminescent cell viability assay. The format is functional, cell-based. A general note: In ATP-based viability assays light output follows the ATP content of the culture.

The nature of data set [3]: Metabolic stability in human liver microsomes assessed as half life by LC-MS/MS analysis. The format is ADME. In general terms: Microsomes from liver hold many membrane-bound enzymes, among them those of drug oxidation.

For orientation: EC50 means the concentration that produces a half-maximal response. With `CC(=O)Nc1nc2ccc(-c3cnc(C#N)c(NC(=O)OC4CCCCC4)c3)cc2s1`, in data set [1], the EC50 was found to be 534 nM.

Consider `CC(=O)Nc1cn2cc(-c3cnc(C)c(NC(=O)OC4CCCCC4)c3)ccc2n1`, for which the EC50 was 97 nM in data set [1] and 45 nM in data set [2].

The term half-life denotes how long it takes for the measured level to halve. In the case of `Cc1ncc(-c2ccc3nc(NC(=O)C4CC4)sc3c2)cc1NC(=O)OC1CCCC1`, the EC50 in data set [1] worked out at 8.9 nM; in data set [2], 8.3 nM. In addition, in data set [3], the half-life turned out to be 5.7 min. Take `CNC(=O)Nc1nc2ccc(-c3cnc(C)c(NC(=O)OC4CCCCC4)c3)cc2s1`: in data set [1], the EC50 came out at 7 nM. With `Cc1ncc(-c2ccc3nc(NC(=O)C4CC4)sc3c2)cc1NC(=O)OC1CCC1`, the EC50 in data set [1] is 16 nM. The same measure, in the same setting: the value for `CC(=O)Nc1nc2ccc(-c3ccc(C)c(NC(=O)OC4CCCCC4)n3)cc2s1` was 650 nM; that for `CC(=O)Nc1nc2cc(-c3cnc(C)c(NC(=O)OC4CCCCC4)c3)ccn2n1` was greater than 1000 nM. On the same count and under the same terms, with `CCC(=O)Nc1nc2ccc(-c3cnc(C)c(NC(=O)OC4CCCCC4)c3)cc2s1` the figure was 38 nM.

`CC(=O)Nc1nc2ccc(-c3cc(NC(=O)OC4CCCCC4)c(C)nn3)cc2s1`: in data set [1], the half-maximal effective concentration (EC50) was 206 nM. Still for that read-out and setting: the value for `Cc1ncc(-c2ccc3nc(NC(=O)c4ccccc4)sc3c2)cc1NC(=O)OC1CCCCC1` was 52 nM. As for `COc1ncc(-c2ccc3nc(NC(C)=O)sc3c2)cc1NC(=O)OC1CCCCC1`, the EC50 in data set [1] was found to be 182 nM.

In the case of `CC(=O)Nc1nc2ccc(-c3cnc(C)c(NC(=O)OC4CCCCC4)c3)nc2s1`, the results for the EC50 in data set [1] and in data set [2] were 130 nM and 30 nM, respectively. In the case of `CC(=O)Nc1nc2cnc(-c3cnc(C)c(NC(=O)OC4CCCCC4)c3)cc2s1`, the EC50 in data set [1] was greater than 1000 nM. For `CC(=O)Nc1nc2ncc(-c3cnc(C)c(NC(=O)OC4CCCCC4)c3)cc2s1`, the EC50 in data set [1] was greater than 1000 nM. Same read-out and setting: the value for `Cc1ncc(-c2ccc3nc(N)sc3c2)cc1NC(=O)OC1CCCCC1` was 100 nM. As to `Cc1ncc(-c2ccc3nc(NC(=O)C4CC4)sc3c2)cc1NC(=O)OC1CCCOC1` (stereo not drawn), the EC50 in data set [1] worked out at 27 nM. Besides, the half-life in data set [3] turned out to be 15 min. In the case of `Cc1ncc(-c2ccc3nc(NS(C)(=O)=O)sc3c2)cc1NC(=O)OC1CCCCC1`, the EC50 in data set [1] was greater than 1000 nM. `Cc1ncc(-c2ccc3nc(NC(=O)C4CC4)sc3c2)cc1NC(=O)OC1CCC(F)(F)CC1`: the EC50 in data set [1] turned out to be 6.1 nM; in data set [2], 2 nM. In addition, in data set [3], the half-life turned out to be 43 min. On to `CC(=O)Nc1nc2ccc(-c3cnc(C)c(NC(=O)OC4CCCCC4)c3)cc2s1`, for which the EC50 in data set [1] amounted to 23 nM; in data set [2] it was 13 nM. For the compound `CCC(C)OC(=O)Nc1cc(-c2ccc3nc(NC(=O)C4CC4)sc3c2)cnc1C` (stereo not drawn), the EC50 in data set [1] turned out to be 17 nM. For the same compound, the half-life in data set [3] was found to be 14 min. Take `CCc1ncc(-c2ccc3nc(NC(C)=O)sc3c2)cc1NC(=O)OC1CCCCC1`: the EC50 in data set [1] turned out to be 74 nM; in data set [2], 150 nM. In the same order, the values of `CC(=O)Nc1nc2ccc(-c3cc(NC(=O)OC4CCCCC4)c(C)cn3)cc2s1` are 73 nM and 15 nM. For the compound `CNc1nc2ccc(-c3cnc(C)c(NC(=O)OC4CCCCC4)c3)cc2s1`, the EC50 in data set [1] is greater than 1000 nM.

On to `Cc1ncc(-c2ccc3nc(NC(=O)C4CC4)sc3c2)cc1NC(=O)OC1CC(C)OC(C)C1` (stereo not drawn), for which the EC50 in data set [1] was determined as 4.8 nM; in data set [2], 5.2 nM. In data set [3], the half-life is 12 min. As for `CC(=O)Nc1nc2ccc(-c3cnc(C)c(NC(=O)OC4CCCCC4)c3)cn2n1`, the EC50 in data set [1] was greater than 1000 nM. Regarding `CC(=O)Nc1cn2nc(-c3cnc(C)c(NC(=O)OC4CCCCC4)c3)ccc2n1`, the EC50 in data set [1] was 97 nM.

As to `Cc1ncc(-c2ccc3nc(NC(=O)C4CC4)sc3c2)cc1NC(=O)OC1CCCCC1`, the EC50 in data set [1] stood at 1.6 nM; in data set [2] it was 2.9 nM. Also, the half-life in data set [3] came to 6.5 min. In the case of `CCOC(=O)Nc1nc2ccc(-c3cnc(C)c(NC(=O)OC4CCCCC4)c3)cc2s1`, the EC50 in data set [1] was found to be 53 nM.
